Results reported in patent publication US12617818B2, “Compositions and methods for modulating myosin subfragment-2 coiled coil stability and methods for using them” (UNIVERSITY OF NORTH TEXAS, priority 2020, dated 2026).
pKd: −log10 of the molar value. Several values for one entry are separate records, joined by “and”; a condition that tells them apart may be missing. Equal entries are not always repeated. Entries after “also recorded” stand apart in the source; their conditions may differ.

Experiments:
[1] = target: T1, smooth muscle myosin S2 peptide (MYH11) (Homo sapiens, UniProt P35749); experiment: GFS, uncoiling of smooth myosin S2 peptide dimer; format: biochemical; details: for impact on mechanical stability of smooth muscle myosin S2 peptide: force distance curve vs control; for Force required to uncoil S2 molecule: length 10 nm, in presence of the anti-S2 peptide, ± SEM
T1 construct: host or cells: chemical synthesis
T1 sequence (P35749 with tags, fused parts or gaps): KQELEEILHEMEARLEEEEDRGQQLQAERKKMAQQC
Excerpt: 3-aminopropyltriethoxysilane, acetone, coupling buffer (0.01 M pyridine in water with pH 6.0), 5% glutaraldehyde, quenching solution (1 M glycine in water with pH 7.0), blocking buffer (0.01 M Tris, 0.1% sodium azide, 0.1% bovine serum albumin, 0.15 M sodium chloride, and 0.001 M ethylenediaminetetraacetic acid with pH 7.0), wash buffer (0.01 M Tris, 0.1% sodium azide, 0.15 M sodium chloride, and 0.001 M ethylenediaminetetraacetic acid with pH 7.0) low salt buffer (0.1 M potassium chloride, 0.02 M imidazole, 5 mM magnesium chloride, with pH 7.0), 1-ethyl-3-(3-dimethyaminopropyl) carbodiimide, N-hydroxysuccinamide, iodoacetamide-succinimidyl ester, 8M urea solution (50 mM imidazole and 0.1 mM tris (2-carboxyethyl) phosphine with pH 7.0) monodisperse silica beads, glass slides, glass coverslips, vacuum grease, rabbit skeletal myosin, purified actin (G-actin), 1 μM human β-cardiac myosin S2 peptide, 1 μM human β-cardiac mutants myosin S2 peptide (E930del and E924K), 1 μM human skeletal myosin S2 peptide, 1 μM human smooth myosin S2 peptide, stabilizer peptide, and destabilizer peptide. A light microscope with an objective lens of 10× was mounted on an alt-azimuthal mount. A digital video camera of Sony, XCD-V60 was replaced with the ocular lenses. Extension springs on steel bracket held the alt-azimuthal mount suspended.
Gravitational force spectroscopy (GFS), is a single molecule force spectroscopy that utilizes gravitational force to measure absolute length of a single molecule at the given force calculated by the density of the bead suspending the molecule. This technique was discovered and developed in Root lab, which measures the forces in piconewton and sub-piconewton levels. Other than absolute length of a molecule, GFS measures force range required to uncoil, stretch or extend the molecule yielding a force-distance profile for the suspended molecule. Besides that, based on the force-distance profile, number of amino acids within the molecule can be calculated. […] The GFS allowed to test the flexibility or stability of a single molecule of myosin S2 peptide and also for the S2 peptides treated with anti-S2 peptides. Flexibility of myosin S2 is not dependent on assembly myosin as a thick filament or myosin in its single molecule form. […]
Free fall mode, another measurement variant of GFS which allows the user to get a force distance profile on a single molecule experiencing the gravitational force. […] During the free fall mode, GFS has a single molecule which is suspended within an immobile edge and mobile bead will now experience the variable force which would be calculated by the product of mass of the bead and the acceleration of the GFS. […]

[2] = target: T2, human cardiac myosin S2 peptide (Homo sapiens, UniProt P12883); experiment: Competitive ELISA (cELISA) against polyclonal anti-S2 antibody; format: binding; details: curve fit of OD vs peptide concentration; read-out: binding efficiency (Kd) to human cardiac myosin S2 peptide
T2 construct: The 19 residue peptide was chemically synthesized
Protocol: Phosphate buffer saline (PBS) contained 0.14 M sodium chloride, 2.7 mM potassium chloride, 1.5 mM potassium phosphate monobasic, and 8.1 mM sodium phosphate dibasic with pH 7.4. Detergent buffer was made with 0.05% triton X-100 in PBS, blocking buffer was made with 3% powdered milk in detergent buffer. Assay buffer contained 100 mM potassium phosphate dibasic, 100 mM potassium phosphate monobasic, 1 M potassium chloride and 10 mM magnesium chloride with pH 7.0. Stocks of primary antibody (polyclonal antibody anti-S2), rabbit skeletal myosin, human cardiac myosin S2 peptide, stabilizer and destabilizer peptide. Secondary antibody conjugated with alkaline phosphatase was anti-guinea pig immunoglobulin G (IgG)-alkaline phosphatase (Sigma-Aldrich, catalog number A5062) produced in goat and isolated by affinity chromatography. Substrate was 5-Bromo-4-chloro-3-indolyl phosphate (BCIP) tablets dissolved in 10 ml of distilled water per tablet and 96 well microtiter plate.
Competitive Enzyme Linked Immunosorbent Assay (cELISA) is a classical immunochemical test to validate the binding efficiency and specificity in lower molar concentrations (Yorde et al., 1976; Voller et al., 1978; Walker, J. M. 1996). In this assay the polyclonal antibody anti-S2 raised against single alpha helix of myosin S2 would be used to compete with stabilizer or destabilizer peptide to bind myosin S2 in rabbit skeletal myosin molecule as well as small human cardiac myosin S2 peptide. This cELISA, thus have two molecules polyclonal anti-S2 and stabilizer peptide which have two binding sites one on rabbit skeletal myosin and the other one being on small human cardiac myosin S2. Since both polyclonal anti-S2 and stabilizer peptide were designed against human β-cardiac myosin S2 they both would have a stronger affinity towards the smaller human β-cardiac myosin S2 peptide against the myosin S2 on rabbit skeletal myosin.
To test the binding specificity and efficiency of stabilizer or destabilizer peptide the following setup was used. Start of the setup would be to coat the wells with rabbit skeletal myosin molecule and add appropriate amount human cardiac myosin S2 peptide that would bind the primary polyclonal anti-S2 antibody and when washed there won't be enough primary polyclonal anti-S2 antibody to bind myosin S2 of rabbit skeletal myosin adsorbed on the wells. When alkaline phosphatase conjugated secondary antibody is added on to the wells, it won't have enough or none primary polyclonal anti-S2 antibody to bind. After addition of color developing BCIP substrate to the wells it would lead to low or no color development leading to lower optical density (OD). […]

Row | Force required to uncoil S2 molecule [1] [pN] | pKd [2] | Structure (SMILES) | impact on mechanical stability of smooth muscle myosin S2 peptide [1]
1 | 4.51E−01 ± 2.98E−02 | 8.22 and 9.00 | CSCC[C@H](NC(=O)[C@H](CCC(=O)O)NC(=O)[C@H](CCCNC(=N)N)NC(=O)[C@H](CCC(=O)O)NC(=O)[C@H](CC(=O)O)NC(=O)[C@H](CCC(=O)O)NC(=O)[C@H](CC(C)C)NC(=O)[C@H](CCCNC(=N)N)NC(=O)[C@H](CCC(=O)O)NC(=O)[C@H](CC(N)=O)NC(=O)[C@H](CCSC)NC(=O)[C@@H](N)CCC(=O)O)C(=O)N[C@@H](CCCCN)C(=O)N[C@@H](C)C(=O)N[C@@H](CCC(=O)O)C(=O)N[C@@H](CC(C)C)C(=O)N[C@H](C(=O)N[C@@H](C)C(=O)N[C@@H](CCCCN)C(=O)O)[C@@H](C)O [Destabilizer] | do not have an impact
2 | 4.96E−01 ± 7.60E−02 | 9.00 | C[C@H](NC(=O)[C@H](CCCCN)NC(=O)[C@H](Cc1ccccc1)NC(=O)[C@H](CCCCN)NC(=O)[C@H](CCCCN)NC(=O)[C@H](CCCCN)NC(=O)[C@H](CCCCN)NC(=O)[C@H](CCCCN)NC(=O)[C@H](CCCCN)NC(=O)[C@H](CCCCN)NC(=O)[C@@H](N)CCCCN)C(=O)N[C@@H](CCCCN)C(=O)N[C@@H](CCCCN)C(=O)N[C@@H](CCCCN)C(=O)N[C@@H](CCCCN)C(=O)N[C@@H](CCCCN)C(=O)N[C@@H](CCCCN)C(=O)O [Stabilizer] | do not have an impact; also recorded: no effect
